In patent publication US20190169218A1, “AMPHIPATHIC COMPOUND HAVING NOVEL PENTA-SACCHARIDE HYDROPHILIC GROUP AND USE THEREOF” (Industry-University Cooperation Foundation Hanyang …, priority 2016, published 2019):

Legend:
[1] = critical micelle concentration (CMC) by hydrophobic fluorescent staining with diphenylhexatriene (DPH); assay type: physicochemical
Excerpt: Methods of measuring CMC are not particularly limited, and methods widely known in the art may be used. For example, a fluorescence staining method using diphenylhexatriene (DPH) may be used.
To characterize PSAs of Preparation Examples 1 to 3 synthesized according to the synthetic method of Example 1; PSEs of Preparation Examples 4 to 7 synthesized according to the synthetic method of Example 2; TPS-Es and TPS-ELs of Preparation Examples 8 to 14 synthesized according to the synthetic method of Example 3; and TPS-As of Preparation Examples 15 to 17 synthesized according to the synthetic method of Example 4, the critical micellar concentrations (CMCs) of PSAs, PSEs and TPSs and the hydrodynamic radii (Rh) of formed micelles were measured.
(§1) Specifically, critical micellar concentrations (CMCs) were measured using hydrophobic fluorescent staining and diphenylhexatriene (DPH), and the hydrodynamic radii (Rh) of micelles formed by each compound at a concentration of 1.0 wt % were measured using dynamic light scattering (DLS). The results were compared with results obtained from an existing amphipathic molecule (detergent), DDM, and are shown in Table 1.

[2] = hydrodynamic radius of micelles by dynamic light scattering (DLS); assay type: physicochemical; details: compound at 1.0 wt %
Experimental: Methods of measuring the radius of micelles are not particularly limited, and methods widely known in the art may be used. For example, dynamic light scattering (DLS) may be used.
as §1
When measuring, each of PSAs, PSEs and TPSs was used at a concentration of 1.0 wt %.

[3] = target: T1, human β2 adrenergic receptor (β2AR) (Homo sapiens, UniProt P07550); experiment: β2AR activity by [3H]-dihydroalprenolol radioactive ligand binding assay; assay type: biochemical; details: for long-term β2AR activity ([3H]-DHA binding): 3 or 5 days at room temperature
T1 construct: Flag; made in house
T1 sequence (P07550 whole entry): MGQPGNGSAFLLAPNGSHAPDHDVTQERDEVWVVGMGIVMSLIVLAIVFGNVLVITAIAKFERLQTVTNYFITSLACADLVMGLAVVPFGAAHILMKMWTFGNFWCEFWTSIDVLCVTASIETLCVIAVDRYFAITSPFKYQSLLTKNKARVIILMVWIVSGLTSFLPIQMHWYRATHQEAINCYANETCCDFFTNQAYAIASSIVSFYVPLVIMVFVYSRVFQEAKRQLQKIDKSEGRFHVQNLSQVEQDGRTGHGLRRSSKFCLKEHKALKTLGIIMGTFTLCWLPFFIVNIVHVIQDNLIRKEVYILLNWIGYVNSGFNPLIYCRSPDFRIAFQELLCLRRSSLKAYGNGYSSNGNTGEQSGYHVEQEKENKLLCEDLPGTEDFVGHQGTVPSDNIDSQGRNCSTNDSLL
Experimental: The membrane protein stabilizing ability of receptors (mBBr-β2ARs) solubilized in PSAs or PSEs was evaluated by measuring the binding activity of the receptors to [^3H]-dihydroalprenolol ([^3H]-DHA).
Specifically, radioactive ligand binding assay was performed as follows. β2ARs purified with 0.1 wt % DDM was concentrated to about 10 mg/mL (approximately 200 μM). β2ARs purified with DDM were used to prepare a master binding mixture containing 10 nM [^3H]-dihydroalprenolol (DHA), which was dissolved in 0.2 wt % of DDM, PSA or PSE and supplemented with 0.5 mg/mL BSA. At a concentration of 0.2 pmol, the activity of the receptors purified with the amphipathic compounds was monitored at regular intervals over a 4-day incubation period. Protein samples were incubated on ice for 2 days and then at room temperature for 2 days. Receptor activity was measured by binding assay for dissolved radioactive ligands. The receptors purified with DDM or a novel formulation (PSA-C11, PSE-C11 or PSE-C13) were incubated with 10 nM [^3H]-DHA at room temperature for 30 minutes. The mixture was loaded onto a G-50 column, a solution passed through the column was collected in 1 mL of a binding buffer (100 mM NaCl and 20 mM HEPES (pH 7.5) supplemented with 0.5 mg/mL BSA and 20×CMC amphipathic compounds), and 15 mL of a scintillation fluid was added to the solution. Receptor-bound [^3H]-DHA was measured using a scintillation counter (Beckman). Non-specific binding of [^3H]-DHA was measured by adding 1 μM alprenolol (Sigma) to the same reaction mixture. The binding degree of the receptors to [^3H]-DHA was represented by a column graph.
The ability of TPSs (TPS-As, TPS-Es and TPS-ELs) to stabilize the structures of human β2 adrenergic receptors (β2ARs) and G protein-coupled receptors (GPCRs) was measured. That is, DDM-purified receptors were diluted with a buffer solution containing only each of the TPSs without cholesteryl hemisuccinate (CHS) or a buffer solution containing CHS and DDM. The final concentration of the compounds was CMC+0.2wt %, and the binding activity of the receptors to ligands was evaluated by measuring the degree of binding of the receptors to [^3H]-dihydroalprenolol ([^3H]-DHA).
Specifically, radioactive ligand binding assay was performed as follows. β2ARs were purified with 0.1 wt % DDM (D. M. Rosenbaum et al., Science, 2007, 318, 1266-1273.) and was concentrated to about 10 mg/mL (approximately 200 μM). β2ARs purified with DDM were used to prepare a master binding mixture containing 10 nM [^3H]-dihydroalprenolol (DHA), which was dissolved in 0.2% amphipathic compounds (DDM or TPSs) and supplemented with 0.5 mg/mL BSA. The activity of the receptors purified with the amphipathic compounds was monitored at regular intervals over a 3- to 5-day incubation period. The receptors purified with DDM or TPSs were incubated with 10 nM [^3H]-DHA at room temperature for 30 minutes. The mixture was loaded onto a G-50 column, a solution passed through the column was collected in 1 mL of a binding buffer (100 mM NaCl and 20 mM HEPES (pH 7.5) supplemented with 0.5 mg/mL BSA and 20×CMC of each amphipathic compound), and 15 mL of a scintillation fluid was added to the solution. Receptor-bound [^3H]-DHA was measured using a scintillation counter (Beckman). The binding degree of the receptors to [^3H]-DHA was represented by a column graph.

[4] = test system: T4L-β2AR-Gs or β2AR-Gs complexes; experiment: purification and stability of T4L-β2AR-Gs or β2AR-Gs complexes (analytical gel filtration, negative staining EM); set-up: species or system human; details: after incubation for 15 and 17 days
Experimental: The ability of PSE-C11 or TPS-E10L to purify and stabilize T4L-β2AR-Gs or β2AR-Gs complexes was measured using electron microscopy (EM) analysis.
Specifically, measurement of the ability of PSE-C11 for TPS-E10L to purify and stabilize T4L-β2AR-Gs or β2AR-Gs complexes was performed as follows. 100 μM T4L-β2AR solubilized in 0.1 wt % DDM was mixed with 120 μM Gs heterotrimers for 30 minutes. 0.5 units of apyrase (NEB) and 2 mM MgCl2 were added to the mixture, followed by a 1-hour incubation to form complexes. 1 wt % PSE-C11 or TPS-E10L was respectively added to the mixture to achieve a final concentration of 0.8%, and incubated for 30 minutes to allow DDM to be exchanged with PSE-C11 or TPS-E10L. […] Finally, proteins were eluted with a 0.05% (100×CMC) PSE-C11 or TPS-E10L buffer. Gel filtration was performed using a running buffer (20 mM HEPES (pH 7.5), 100 mM NaCl, 0.005% PSE-C11 or TPS-E10L, 1 μM BI, 100 μM TCEP) to purify T4L-β2AR-Gs complexes. To measure the stability of β2AR-Gs complexes present in PSE-C11 or TPS-E10L, analytical gel filtration was performed with running buffers of the same formulation at 12 hours, 1 day, 3 days, 7 days, and 15 days. After a 15 day-incubation, analytical gel filtration was performed using an amphiphilic compound pre-buffer having the same formulation as above without PSE-C11 or TPS-E10L.
In addition, negative staining EM analysis for T4L-β2AR-Gs or β2AR-Gs complexes present in PSE-C11 was performed as follows. Samples containing T4L-β2AR-Gs or β2AR-Gs were prepared to perform electron microscopy analysis using a conventional negative staining protocol (see Peisley, A. et al., G Protein-Coupled Receptors in Drug Discovery: Methods and Protocols, Methods in Molecular Biology, 1335, 29-38 (2015)), and imaging was performed by operating a Tecnai T12 electron microscope at 120 kV at room temperature. Images were recorded with a Gatan US4000 CCD camera at a 71,138×magnification with a defocus value of ˜[…].

[5] = target: T2, uric acid-xanthine/H+ symporter (UapA) (Emericella nidulans, UniProt Q07307, G411V); experiment: thermal stability of UapA by CPM analysis; set-up: species or system Aspergillus nidulans; details: CMC+0.2 wt %, 40° C., 120 minutes
T2 construct: GFP; made in house; host or cells: Saccharomyces cerevisiae FGY217
T2 sequence (Q07307 12-574 G411V): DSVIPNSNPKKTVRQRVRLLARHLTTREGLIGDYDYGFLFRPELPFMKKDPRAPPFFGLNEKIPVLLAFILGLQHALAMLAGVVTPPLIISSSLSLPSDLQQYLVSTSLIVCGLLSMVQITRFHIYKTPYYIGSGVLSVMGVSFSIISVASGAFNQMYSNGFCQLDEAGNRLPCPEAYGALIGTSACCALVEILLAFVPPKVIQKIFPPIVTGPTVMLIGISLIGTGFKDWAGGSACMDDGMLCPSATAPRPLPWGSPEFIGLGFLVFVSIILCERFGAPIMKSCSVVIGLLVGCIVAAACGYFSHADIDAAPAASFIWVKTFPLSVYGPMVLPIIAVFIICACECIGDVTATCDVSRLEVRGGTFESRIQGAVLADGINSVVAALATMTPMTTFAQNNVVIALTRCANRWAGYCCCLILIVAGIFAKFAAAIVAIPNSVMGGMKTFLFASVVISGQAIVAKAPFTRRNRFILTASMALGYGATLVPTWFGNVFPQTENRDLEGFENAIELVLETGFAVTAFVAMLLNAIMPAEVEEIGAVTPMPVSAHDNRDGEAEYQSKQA
Experimental: The ability of TPSs (TPS-As, TPS-Es and TPS-ELs) to stabilize the structure of uric acid-xanthine/H+ symporter (UapA) isolated from Aspergillus nidulans was measured. The structural stability of UapA was evaluated using a sulfhydryl-specific fluorophore, N-[4-(7-diethylamino-4-methyl-3-coumarinyl)phenyl]maleimide (CPM).
Specifically, UapAG411V1-11 (hereinafter, referred to as ‘UapA’) was expressed in a Saccharomyces cerevisiae FGY217 strain as a GFP fusion protein, and was isolated using a sample buffer (20 mM Tris (pH 7.5), 150 mM NaCl, 0.03% DDM, 1 mM xanthine). The transporter was concentrated to about 10 mg/mL using a 100 kDa molecular weight cut-off filter (Millipore). The transporter was diluted with a CMC+0.04 wt % or CMC+0.2 wt % buffer at a ratio of 1:150 in a Greiner 96-well plate containing one of TPS-As (TPS-A6, TPS-A7 or TPS-A8), TPS-Es (TPS-E6, TPS-E7 or TPS-E8), TPS-ELs (TPS-E8L, TPS-E9L, TPS-E10L or TPS-E11L), MNG-3 or DDM (control group). […] During incubation, fluorescence emission intensity was monitored using a microplate spectrophotometer set at excitation and emission wavelengths of 387 and 463 nm, respectively. The maximum value of fluorescence intensity was used to calculate the relative percentage of folded transporters during the incubation period. […]

Row | initial receptor activity maintained ([3]; after 5 days of incubation at room temperature) | Compound | CMC [1] [mM] | CMC (wt %) [1] [wt %] | Rh (nm), hydrodynamic radius of micelles [2] [nm] | long-term β2AR activity ([3H]-DHA binding) [3] | stability of β2AR-Gs complexes (analytical gel filtration) [4] | maintaining folding state of UapA (CPM) [5]
1 | up to 90% | CCCCCCCCCCOCC(COCCCCCCCCCC)(COCCCCCCCCCC)CO[C@@H]1OC(COCCCO[C@@H]2OC(CO)[C@@H](O)C(O)C2O)[C@@H](OCCCO[C@@H]2OC(CO)[C@@H](O)C(O)C2O)C(OCCCO[C@@H]2OC(CO)[C@@H](O)C(O)C2O)C1OCCCO[C@@H]1OC(CO)[C@@H](O)C(O)C1O (some centres unmarked) [TPS-E10L] | ~0.002 | ~0.0003 | 4.8 ± 0.34 | significantly better than that of DDM | no separation of the complexes was observed at all | 
2 |  | CCCCCCCCCCCOCC(COCCCCCCCCCCC)(COCCCCCCCCCCC)CO[C@@H]1OC(COCCCO[C@@H]2OC(CO)[C@@H](O)C(O)C2O)[C@@H](OCCCO[C@@H]2OC(CO)[C@@H](O)C(O)C2O)C(OCCCO[C@@H]2OC(CO)[C@@H](O)C(O)C2O)C1OCCCO[C@@H]1OC(CO)[C@@H](O)C(O)C1O (some centres unmarked) [TPS-E11L] | ~0.001 | ~0.0002 | 40.6 ± 4.4 | significantly better than that of DDM |  | the best effect
